# Measured values taken from patent US20240199555A1, “APPLICATIONS OF BIASED LIGANDS OF THE SEROTONIN 5-HT7 RECEPTOR FOR THE TREATMENT OF PAIN, MULTIPLE SCLEROSIS AND THE CONTROL OF THERMOREGULATION” (Centre National de la Recherche Scientifique, priority 2021, published 2024).
# Experiments:
# human 5-HT7a receptor = human 5-HT7a receptor (Homo sapiens (Human), UniProt P34969); assay: Radioligand binding competition, filtration binding assay, 5-HT7a; settings: affinity on 5-HT7 receptor, table of new compounds
# mice = assay: MOG-induced experimental autoimmune encephalomyelitis (EAE) model; type: in vivo; settings: 1 mg/kg, ip, day 8 to day 18
# Source text: FIG. 12: Evaluation of the therapeutic potential of Serodolin in EAE model. A/Serodolin has been administrated for 10 days from day 8 after immunization. After 18 days post-immunization, myelin staining and cell infiltration have been evaluated in 3 groups of mice (non-immunized NI, Vehicle-treated mice or Serodolin-treated mice. B/Immunolabeling of astrocytes (GFAP) and microglia (Iba1) performed in all groups. Quantifications used Image J software. **p<0.01 *p<0.05.
# Autoimmune experimental encephalomyelitis (EAE) model. For EAE model, the pathology was induced by subcutaneous injection of an emulsion of MOG35-55 peptide in complete Freund's adjuvant as previously described (Terry, Ifergan, & Miller, 2016). The mice were scored blindly once a day starting at Day 7 postimmunization until Day 30 according to the following scale: 0.0=no obvious changes in motor function; 0.5=tip of tail is limp; 1.0=limp tail; 1.5=limp tail and hind leg inhibition; 2.0=limp tail and weakness of hind legs or signs of head tilting; 2.5=limp tail and dragging of hind legs or signs of head tilting; 3.0=limp tail and complete paralysis of hind legs or limb tail with paralysis of one front and one hind leg; 3.5=limp tail and complete paralysis of hind legs and animal unable to right itself when placed on its side; 4.0=limb tail, complete hind leg, and partial front leg paralysis with minimal moving and feeding. Drugs were administered at the onset of clinical symptoms (Day 8) until Day 18 after immunization. Serodolin (1 mg/kg, ip) or vehicle was daily administered. Mice were given Ketamine/Xylasine anaesthesia and then intracardiacally perfused first with PBS EDTA for 20-30 min and then with PFA (paraformaldehyde) 4% for 20-30 min. Spinal cords were removed and incubated first in PFA 4% for 48-72 h and then in sucrose 30% Organ was included in TFM (Tissue freezing media) and snap frozen using isopentane and dry ice. Spinal cord were cut on 14 μm thick sections using Leica CM3050 S Research Cryostat for immunohistochemistry experiments.
# The inventors considered that Serodolin could have some benefit effects on some chronic inflammatory processes, like those observed in MS. Myelin oligodendrocyte glycoprotein (MOG)-induced murine experimental autoimmune encephalomyelitis (EAE) is a widely accepted model for studying the clinical and pathological features of multiple sclerosis. After MOG induction of EAE (9 animals/group), the effect of AIC-01 injection was tested for […] (1 mg/kg, ip from day 8 to day 18 after MOG induction). Each animal was assessed by a behavioural test based on motor functions, and an EAE score was obtained. […] Histopathological characteristics performed after MOG-induction allowed to decipher Serodolin effect at molecular and cellular levels. […]
# Sprague-Dawley male rats = assay: Formalin induced inflammatory pain model; type: in vivo; settings: single s.c., Serodolin 10 mg/kg, MOA51 1 mg/kg, morphine
# Procedure: FIG. 18: Effect of a single administration of Serodolin (AIC01) or MOA51 in the formalin test in rats. Effect of a single subcutaneous administration of Serodolin (AIC01) or MOA51 in the formalin test in rats. In this test, Sprague-Dawley male rats received unilateral injection of a 2.5% formalin solution (50 μl) into the plantar aspect of the hindpaw on testing day (i.e. D0). Control group received Vehicle (20% DMSO/5% Tween 80/NaCl). Serodolin was subcutaneously (sc) administrated at 10 mg/kg and MOA51 at 1 mg/kg. Positive control animals were treated with morphine (3 mg/kg, sc). Paw licking time was measured. Results are expressed as mean±s.e.m. Percentage are expressed as decreased as compared to the vehicle-treated group and represented as figure (B). ***: p<0.001 as compared to the vehicle-treated group, Bonferroni's test after significant Two-way Repeated Measures ANOVA. NS: Non-significant.
# Sprague-Dawley male rats (n=10 rats per group) received unilateral injection of a 2.5% formalin solution (50 μl) into the plantar aspect of the hindpaw on testing day (i.e. D0). Experience was separated into 4 groups of animals. Formalin animals+vehicle-treated group; […]—Formalin animals+Sponsor's Serodolin (10 mg/kg), s.c.—Formalin animals+Sponsor's MOA51 (1 mg/kg), s.c.—Formalin animals+internal validator-treated group (Morphine at 4 mg/Kg, s.c.). Single subcutaneous administration of the Vehicle and Sponsor's Compound 30 min (or other timing depending on Sponsor's design) before formalin injection on testing day (i.e. D0)/Subcutaneous administration of Morphine 30 min before formalin injection on testing day (i.e. D0). Hindpaw licking time recorded in consecutive 5 minutes periods from 0 to 5 minutes (early phase) and 17 to 27 minutes (late phase) after formalin injection.
# We evaluated the effect of Serodolin as well as MOA51 in rats in the formalin test, an acute and tonic pain model based on the use of a chemical stimulus. Subcutaneous injection of formalin into the right hindpaw produces a biphasic painful response of increasing and decreasing intensity for about 30 minutes after the injection. […] Although not significant, Serodolin, MOA51 and morphine have an inhibitory effect (−40%, −35% and −57% respectively) during the early phase.
# C57BL/6 mice = assay: Spared Nerve Injury (SNI) neuropathic pain model, Von Frey; settings: s.c.
# Procedure: Pregabalin, vehicle or compounds solutions are subcutaneously administrated for 8 consecutive days. • (A) Mechanical response threshold after the first administration (D+10). […] Positive control animals were treated with Pregabalin (5 mg/kg, sc). Statistical differences are indicated compared to vehicle group (Two-way RM ANOVA followed by Bonferroni post-hoc test: ***p<0.001, ** p<0.01, * p<0.05). […] Positive control animals were treated with Pregabalin (5 mg/kg, sc). Statistical differences are indicated compared to vehicle group (Two-way RM ANOVA followed by Bonferroni post-hoc test: ***p<0.001, ** p<0.01, * p<0.05). […] (Two-way RM ANOVA followed by Bonferroni post-hoc test: ***p<0.001, ** p<0.01, * p<0.05)
# MOA51 and Serodolin (AIC01) compounds were diluted in NDT solution (NaCl 0.9%—DMSO 20%—Tween80 5%). […] AIC01 was resuspended at 0.5 mg/mL and administrated at a ratio of 100 μl per 10 g (dose of 5 mg/kg).
# Experiment starts with 8 weeks old male C57B16J mice (from Charles River). Study was performed on 40 mice (2 mice were excluded during the study due to health guidelines) divided in 4 randomized groups. • Group A: s.c. injection at 5 mg/kg of pregabalin. • Group B: s.c. injection at 0.5 mg/kg of MOA51. • Group C: s.c. injection at 5 mg/kg of Serodolin (AIC01). • Group D: s.c. injection of NDT solution (referred as Vehicle hereafter).
# Compounds solutions, pregabalin and vehicle were subcutaneously administrated (100 μl/10 g) for 9 consecutive days, starting 10 days after surgery. Ligature and transection of the common peroneal and tibial distal branches of the sciatic nerve was made leaving the sural branch intact. 7 days post-surgery, a decrease of threshold response to Von Frey filaments of ipsilateral hind-paw was observed corresponding to neuropathic pain apparition (mechanical allodynia). Mechanical threshold response of mice were measured with calibrated Von Frey filaments using the up/down method. Experimenter was blind to mice treatment. Measures are performed as follow: one baseline measure before surgery, one measure at D+10, D+12, D+14, D+16 and D+18 before drug's administration, and 1 h, 2 h post-drug administration. A supplementary measure 4 h post-drug administration was performed at D+10 and D+18.
# Two-way RM ANOVA (followed by Bonferroni post-hoc test) was used to analysed time course response at D+10 and D+18. Area under the curve was determined with the 1 h and 2 h post-drug administration measures to investigated tolerance of repeated administration of compounds
# human 5-HT7a receptor, sequence (P34969 other isoform, or with tags, fused parts or gaps): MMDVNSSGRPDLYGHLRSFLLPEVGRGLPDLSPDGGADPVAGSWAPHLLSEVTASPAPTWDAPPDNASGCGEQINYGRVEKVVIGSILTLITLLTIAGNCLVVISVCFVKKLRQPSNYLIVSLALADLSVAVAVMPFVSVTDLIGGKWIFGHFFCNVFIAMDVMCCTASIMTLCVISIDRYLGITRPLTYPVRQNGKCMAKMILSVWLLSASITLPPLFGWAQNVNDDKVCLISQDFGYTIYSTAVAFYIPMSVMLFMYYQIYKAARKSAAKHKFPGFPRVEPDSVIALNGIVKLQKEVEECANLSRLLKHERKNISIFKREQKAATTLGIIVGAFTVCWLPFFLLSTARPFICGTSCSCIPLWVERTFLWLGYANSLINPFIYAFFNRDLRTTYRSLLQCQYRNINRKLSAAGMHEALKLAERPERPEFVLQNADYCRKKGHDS
smiles,measurement,setting,value
O=c1[nH]c2ccccc2n1CN1CCN(c2ccc(F)cc2)CC1 [Serodolin],IC50,human 5-HT7a receptor,1.14 nM
same,Ki,human 5-HT7a receptor,0.8 nM
same,EAE score / onset of symptoms,mice,tended to show a delay in the onset of symptoms
same,astrocytes and microglia staining,mice,significantly decreased
same,cell infiltration (DAPI),mice,reduces cell infiltration
same,"myelin staining, increase over vehicle-treated animals",mice,65%
same,"inhibitory effect on paw licking, early phase","Sprague-Dawley male rats; 0 to 5 minutes, not significant",−40%
same,"inhibition of licking, late phase",Sprague-Dawley male rats; 17 to 27 minutes,−80%
same,tolerance after repetitive administration (AUC),C57BL/6 mice; 9 consecutive days,didn't present any tolerance effect after repetitive administration
same,mechanical response threshold vs vehicle,"C57BL/6 mice; first (D+10) and last (D+18) administration, 1 h and 2 h",significant increase of the mechanical threshold response
